One may read the melting point as the temperature, or range, at which the solid turns liquid.

A value given as a limit tells only on which side of the number the result lay.

Data set [1] has as its system cholesterol absorption. Nature of the data set: Cholesterol Absorption Assay in Rat. Conditions: CD male rats, oral dosing, at the highest dose tested (0.0003 to 1 mg/kg); [3H]-cholesterol counts in liver and plasma. Format: in vivo. The protocol:
Compounds of this invention were determined to inhibit cholesterol absorption employing the Cholesterol Absorption Assay in Rat, below. This assay involves comparing a test compound to ezetimibe with respect to their ability to inhibit cholesterol absorption in rat.
Cholesterol Absorption Assay in Rats: CD male rats (n=5/group), aged 5 weeks, were dosed orally with 0.5 ml 0.25% methyl cellulose solution with or without test compound or ezetimibe (0.0003 to 1 mg/kg). 0.5 to 16 hrs later all of the rats were dosed orally with 0.5 ml INTRALIPID® containing 5 μCi [^3H]-cholesterol per rat. Five hours later, the animals were euthanized, and liver and blood were collected. Cholesterol counts in liver and plasma were determined, and percent inhibition of cholesterol absorption was calculated.

Compound `O=C1[C@H](CC[C@H](O)c2ccc(F)cc2)[C@@H](c2ccc(CCC(O)(CO)CO)cc2)N1c1ccc(CCc2nc[nH]n2)cc1` [Example 2, (3R,4S)-4-{4-[3,4-dihydroxy-3-(hydroxymethyl)butyl]phenyl}-3-[(3S)-3-(4-fluorophenyl)-3-hydroxypropyl]-1-{4-[2-(1H-1,2,4-triazol-5-yl)ethyl]phenyl}azetidin-2-one] showed a melting point of 104 °C.
Turning to `O=C1[C@H](CC[C@H](O)c2ccc(F)cc2)[C@@H](c2ccc(O)cc2)N1c1ccc(F)cc1` [ezetimibe, Ezetimibe], in data set [1], the “inhibition of cholesterol absorption” value is on record as greater than 90%.
